Patent US10167313B2, “Selective caspase inhibitors and uses thereof” (Genesis Technologies Limited, priority 2008, dated 2019)
Where two headings read alike, the source gives them in different places.

Tests used:
Hela cells = test: Inhibition of proteolytic cleavage of PARP in staurosporine-treated live Hela cells; assay type: cell-based; settings: for inhibition at 50 µM: Homo sapiens; for effectivity in inhibiting PARP cleavage (in words): relative to DEVD-fmk
Protocol: To test the efficacy of caspase-3 inhibitors at the cellular level, the ability of selected compounds to inhibit the proteolytic cleavage of PARP (poly ADP-ribose polymerase) was evaluated in live Hela cells.
Briefly, in this assay Hela cells are seeded in 96 well plates and incubated for 4 hours with staurosporine, a well characterized inducer of apoptosis, alone or together with different concentrations of compound (50, 25, 10 and 3 uM). After formaldehyde-based fixation, the cells are stained with a fluorescein-labeled anti-cleaved PARP antibody (Cell signaling, Cat#: 9547) and counterstained with Hoechst33342 (Invitrogen, Cat#: H3570) to mark all nuclei. Fluorescence images are taken on a Cellomics™ microscope system (Thermo Scientific, Pittsburgh, USA) with the Hoechst stain in the blue channel and the cleaved PARP antibody stain in the green channel. The percentage of cleaved PARP positive cells is determined by calculating the ratio between nuclei with a cleaved PARP antibody staining above a certain threshold and all (Hoechst positive) nuclei. The efficacy of caspase-3 inhibition is determined by calculating the ratio between cleaved PARP positive cells after staurosporine incubation together with compounds and staurosporine incubation without compounds.

caspase-5 = caspase-5 (Homo sapiens (Human), UniProt P51878); test: Caspase-5 Inhibitor Drug Screening Kit, fluorometric enzymatic assay; settings: for IC50: read-out: Caspase enzymatic activity, IC50 (uM) Caspase 5, 30-minute incubation at 37° C., AFC liberation; for inhibitory activity for caspase-5 (in words): tested dose-range 1-3333 nM
Sequence of caspase-5 (P51878 137-327): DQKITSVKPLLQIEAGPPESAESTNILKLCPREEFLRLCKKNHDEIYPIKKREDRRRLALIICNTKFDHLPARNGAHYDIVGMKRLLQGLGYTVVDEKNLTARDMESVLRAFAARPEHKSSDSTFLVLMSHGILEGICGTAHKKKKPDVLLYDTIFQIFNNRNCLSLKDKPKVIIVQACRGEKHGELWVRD
Sequence of caspase-5 (P51878 347-434): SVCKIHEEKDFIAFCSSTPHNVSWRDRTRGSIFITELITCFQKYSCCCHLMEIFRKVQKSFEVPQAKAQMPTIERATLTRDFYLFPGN
Protocol: (§1) The level of inhibition of caspase-1, -3, -5, -7, -9 activity was determined by comparison of the relative fluorescence intensity in samples with or without the compound.

caspase-9 = caspase-9 (Homo sapiens (Human), UniProt P55211); test: Caspase-9 Inhibitor Drug Screening Kit, fluorometric enzymatic assay; settings: for IC50: read-out: Caspase enzymatic activity, IC50 (uM) Caspase 9, 30-minute incubation at 37° C., AFC liberation; for inhibitory activity for caspase-9 (in words): tested dose-range 1-3333 nM
Sequence of caspase-9 (P55211 1-315): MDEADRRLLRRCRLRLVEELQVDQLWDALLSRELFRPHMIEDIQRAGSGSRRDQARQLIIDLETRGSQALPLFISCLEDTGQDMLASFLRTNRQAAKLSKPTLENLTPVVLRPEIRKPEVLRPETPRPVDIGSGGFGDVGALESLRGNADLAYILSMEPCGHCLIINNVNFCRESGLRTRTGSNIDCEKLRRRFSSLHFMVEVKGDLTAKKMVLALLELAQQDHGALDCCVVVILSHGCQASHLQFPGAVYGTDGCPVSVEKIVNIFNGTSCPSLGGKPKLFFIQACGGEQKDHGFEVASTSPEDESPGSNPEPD
Sequence of caspase-9 (P55211 331-416): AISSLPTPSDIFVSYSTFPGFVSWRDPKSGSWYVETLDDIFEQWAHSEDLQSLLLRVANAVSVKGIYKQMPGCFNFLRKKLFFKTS
Protocol: as §1

caspase-7 = caspase-7 (Homo sapiens (Human), UniProt P55210); test: Caspase-7 Inhibitor Drug Screening Kit, fluorometric enzymatic assay; settings: for IC50: read-out: Caspase enzymatic activity, IC50 (uM) Caspase 7, 30-minute incubation at 37° C., AFC liberation; for selectivity of caspase-3 over caspase-7 (IC50 fold difference): based on the IC50 values
Sequence of caspase-7 (P55210 24-198): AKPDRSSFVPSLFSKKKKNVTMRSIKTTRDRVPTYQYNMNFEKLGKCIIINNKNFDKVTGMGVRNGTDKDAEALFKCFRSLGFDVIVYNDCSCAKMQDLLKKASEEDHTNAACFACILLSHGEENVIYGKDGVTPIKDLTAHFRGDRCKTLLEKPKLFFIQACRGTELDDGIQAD
Sequence of caspase-7 (P55210 207-303): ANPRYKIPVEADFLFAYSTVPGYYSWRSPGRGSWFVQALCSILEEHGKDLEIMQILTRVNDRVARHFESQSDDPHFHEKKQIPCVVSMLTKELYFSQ
Protocol: as §1

caspase-1 = caspase-1 (Homo sapiens (Human), UniProt P29466); test: Caspase-1 Inhibitor Drug Screening Kit, fluorometric enzymatic assay; settings: for IC50: read-out: Caspase enzymatic activity, IC50 (uM) Caspase 1, 30-minute incubation at 37° C., AFC liberation; for inhibitory activity for caspase-1 (in words): tested dose-range 1-3333 nM
Sequence of caspase-1 (P29466 120-297): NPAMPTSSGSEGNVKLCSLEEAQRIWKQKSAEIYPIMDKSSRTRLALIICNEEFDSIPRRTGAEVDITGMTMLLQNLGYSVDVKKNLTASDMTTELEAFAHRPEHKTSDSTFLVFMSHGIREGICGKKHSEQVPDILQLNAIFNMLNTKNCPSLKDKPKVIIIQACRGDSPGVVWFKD
Sequence of caspase-1 (P29466 317-404): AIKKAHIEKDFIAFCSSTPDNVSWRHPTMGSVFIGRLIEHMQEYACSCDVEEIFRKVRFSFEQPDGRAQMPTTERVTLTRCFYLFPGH
Protocol: as §1

caspase-3 = caspase-3 (Homo sapiens (Human), UniProt P42574); test: Caspase-3 Inhibitor Drug Screening Kit, fluorometric enzymatic assay; assay type: biochemical; settings: for IC50: 30-minute incubation at 37° C., AFC liberation
Sequence of caspase-3 (P42574 29-175): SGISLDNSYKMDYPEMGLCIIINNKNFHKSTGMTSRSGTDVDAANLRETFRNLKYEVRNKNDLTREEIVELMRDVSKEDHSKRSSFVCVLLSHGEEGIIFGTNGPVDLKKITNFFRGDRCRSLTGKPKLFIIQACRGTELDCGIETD
Sequence of caspase-3 (P42574 176-277): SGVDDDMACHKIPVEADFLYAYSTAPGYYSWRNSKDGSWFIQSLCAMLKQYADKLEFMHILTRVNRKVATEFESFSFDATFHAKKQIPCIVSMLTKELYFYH
Protocol: as §1

Caspase 3/7 (Glo3/7) = test: Glo3/7 assay
[1] = 50 uM, relative to DEVDFMK, read-out: % of inhibition with compound relative to DEVDFMK
[2] = read-out: % inhibition of PARP cleavage at 50 uM compound, staurosporine 4 hours, 50 uM compound

Row | SMILES | IC50 (caspase-5) | IC50 (caspase-9) | IC50 (caspase-7) | IC50 (caspase-1) | IC50 (caspase-3) | inhibitory activity for caspase-5 (in words) (caspase-5) | inhibitory activity for caspase-9 (in words) (caspase-9) | selectivity of caspase-3 over caspase-7 (IC50 fold difference) (caspase-7) | IC50 (Caspase 3/7 (Glo3/7)) | inhibitory activity for caspase-1 (in words) (caspase-1) | fold less efficiency against caspase-1 than against group III caspases (caspase-1) | inhibition at 10 µM (caspase-5; read-out: Inhibition of Caspase-5) | inhibition at 10 µM (caspase-9; read-out: Inhibition of Caspase-9) | inhibition at 10 µM (caspase-1; read-out: Inhibition of Caspase-1) | activity against caspase-3 (in words) (caspase-3) | inhibition at 50 µM (Hela cells; [1]) | inhibition at 50 µM (Hela cells; [2]) | reduction of the percentage of PARP positive cells after staurosporine treatment (Hela cells) | effectivity in inhibiting PARP cleavage (in words) (Hela cells)
1 | COC(=O)C[C@@H](/C=C/S(C)(=O)=O)NC(=O)[C@@H](NC(=O)[C@@H](NC(=O)[C@H](CC(=O)OC)NC(=O)OCc1ccccc1)C1Cc2ccccc2C1)C(C)C [Compound 51, Z-Asp(β-methyl)-Indanylglycine-Val- Asp(β-methyl)methyl vinyl sulfone] | > 3 µM | > 3 µM | > 3 µM | > 3 µM | – | – | – | – | – | – | – | – | – | – | – | 80% | 65% | – | –
2 | CC(C)[C@H](NC(=O)[C@@H](NC(=O)[C@H](CC(=O)O)NC(=O)OCc1ccccc1)C1Cc2ccccc2C1)C(=O)N[C@H](/C=C/S(C)(=O)=O)CC(=O)O [Compound 57, Z-Asp-Indanylglycine-Val-Aspmethyl vinyl sulfone] | > 3.33 µM | > 3.33 µM | – | – | – | – | – | – | 0.1 µM | – | about 29 fold | – | – | – | – | 70% | 65% | – | –
3 | CC(C)[C@H](NC(=O)[C@@H](NC(=O)[C@H](CC(=O)O)NC(=O)OCc1ccccc1)c1ccccc1)C(=O)N[C@H](/C=C/S(C)(=O)=O)CC(=O)O [Compound 53, Z-Asp-Phg-Val-Aspmethyl vinyl sulfone] | > 10 µM | > 10 µM | – | – | – | – | – | about 12 fold | 0.1 µM | – | – | – | – | – | – | 80% | 55% | more than 50% | highly effective relative to DEVD-fmk
4 | CC(C)[C@H](NC(=O)[C@H](Cc1ccc2ccccc2n1)NC(=O)[C@H](CC(=O)O)NC(=O)OCc1ccccc1)C(=O)N[C@H](/C=C/S(C)(=O)=O)CC(=O)O [Compound 55, Z-Asp-Ala(2′-quinolyl)-Val-Aspmethyl vinyl sulfone] | > 10 µM | > 3.33 µM | – | > 10 µM | – | No significant inhibitory activity | No significant inhibitory activity | – | 0.1 µM | No significant inhibitory activity | – | 21% | 57% | 25% | – | 60% | 40% | – | showing effectivity
5 | CC(C)[C@H](NC(=O)[C@H](Cc1ccc2ccccc2n1)NC(=O)[C@H](CC(=O)O)NC(=O)OCc1ccccc1)C(=O)N[C@H](/C=C(\Cl)S(C)(=O)=O)CC(=O)O [Compound 48, Z-Asp-Ala(2′-quinolyl)-Val-Asp- αchlorovinyl methylsulfone] | > 3.33 µM | – | – | > 3.33 µM | – | – | – | – | 0.1 µM | – | – | – | – | – | – | 65% | 45% | – | showing effectivity

Now from value to compound, other results behind:

Row | IC50 (caspase-5) | IC50 (caspase-9) | IC50 (caspase-7) | IC50 (caspase-1) | IC50 (caspase-3) | inhibitory activity for caspase-5 (in words) (caspase-5) | inhibitory activity for caspase-9 (in words) (caspase-9) | selectivity of caspase-3 over caspase-7 (IC50 fold difference) (caspase-7) | IC50 (Caspase 3/7 (Glo3/7)) | inhibitory activity for caspase-1 (in words) (caspase-1) | fold less efficiency against caspase-1 than against group III caspases (caspase-1) | inhibition at 10 µM (caspase-5; read-out: Inhibition of Caspase-5) | inhibition at 10 µM (caspase-9; read-out: Inhibition of Caspase-9) | inhibition at 10 µM (caspase-1; read-out: Inhibition of Caspase-1) | activity against caspase-3 (in words) (caspase-3) | SMILES | inhibition at 50 µM (Hela cells; [1]) | inhibition at 50 µM (Hela cells; [2]) | reduction of the percentage of PARP positive cells after staurosporine treatment (Hela cells) | effectivity in inhibiting PARP cleavage (in words) (Hela cells)
6 | > 10 µM | > 10 µM | > 10 µM | – | 0.3 µM | – | – | – | – | – | – | – | – | – | – | CC(C)[C@H](NC(=O)[C@@H](Cc1ccc2ccccc2n1)NC(=O)[C@H](CC(=O)O)NC(=O)OCc1ccccc1)C(=O)N[C@H](/C=C/S(=O)(=O)c1ccccc1)CC(=O)O (stereo in doubt) [Compound 70, Z-Asp-(D,L Ala(2′-quinolyl))-Val- Aspphenyl vinylsulfone] | – | – | – | –
7 | > 3.33 µM | > 3.33 µM | – | > 3.33 µM | – | No significant inhibitory activity | No significant inhibitory activity | ~50 fold | 0.9 µM | No significant inhibitory activity | – | – | – | – | – | CC(C)[C@H](NC(=O)[C@H](Cc1ccc2ccccc2n1)NC(=O)[C@H](CC(=O)O)NC(=O)OCc1ccccc1)C(=O)N[C@H](/C=C/S(=O)(=O)c1ccccc1)CC(=O)O [Compound 63, Z-Asp-Ala(2′-quinolyl)-Val-Aspphenyl vinyl sulfone] | 15% | 10% | – | –
8 | > 3.33 µM | – | – | – | – | – | – | – | 0.2 µM | – | – | – | – | – | – | CC(C)[C@H](NC(=O)[C@H](Cc1ccc2ccccc2n1)NC(=O)[C@H](CC(=O)O)NC(=O)OCc1ccccc1)C(=O)N[C@H](/C=C/S(=O)(=O)Oc1ccccc1)CC(=O)O [Compound 65, Z-Asp-Ala(2′-quinolyl)-Val-Aspphenoxy vinyl sulfone] | 40% | 30% | – | –
9 | > 3.33 µM | > 3.33 µM | – | > 3.33 µM | – | – | – | – | 0.04 µM | – | – | – | – | – | – | CC(C)[C@H](NC(=O)[C@H](Cc1ccc(O)cc1)NC(=O)[C@H](CC(=O)O)NC(=O)OCc1ccccc1)C(=O)N[C@H](/C=C/S(C)(=O)=O)CC(=O)O [Compound 76, Z-Asp-Tyr-Val-Aspmethyl vinyl sulfone] | 60% | 55% | more than 50% | –
10 | > 3.33 µM | > 10 µM | > 10 µM | – | > 10 µM | – | – | – | – | – | – | – | – | – | – | CC(C)[C@H](NC(=O)[C@H](Cc1ccc(O)cc1)NC(=O)OCc1ccccc1)C(=O)N[C@@H](C)C(=O)N[C@H](/C=C/S(=O)(=O)c1ccccc1)CC(=O)O [Compound 96, Z-Tyr-Val-Ala-Asp phenyl vinyl sulfone] | – | – | – | –
11 | > 10 µM | > 10 µM | 8.9 µM | > 10 µM | – | – | – | – | – | – | – | – | – | – | – | CC(C)[C@H](NC(=O)[C@@H](Cc1ccc2ccccc2n1)NC(=O)[C@H](CC(=O)O)NC(=O)OCc1ccccc1)C(=O)N[C@H](/C=C/S(C)(=O)=O)CC(=O)O (stereo in doubt) [Compound 71, Z-Asp-(D,L Ala(2′-quinolyl))-Val- Aspmethyl vinylsulfone] | – | – | – | –
12 | > 3.33 µM | > 3.33 µM | > 3.33 µM | > 3.33 µM | > 3.33 µM | – | – | – | – | – | – | – | – | – | abolished completely the activity | CC(C)[C@H](NC(=O)OCc1ccccc1)C(=O)N[C@H](/C=C/S(C)(=O)=O)CC(=O)O [Compound 61, Z-Val-Aspmethyl vinyl sulfone] | 5% | 5% | – | –
